Measured values published in patent publication US11655238B2 (priority 2018, dated 2023).
Values after ≈ are worked out from the molar mass of the structure shown.

Legend:
[1] = test system: Mycobacterium smegmatis strain (mc2155); experiment: Resazurin microplate MIC on Mycobacterium smegmatis; type: cell-based; details: mc2155, 7H9 medium, 37° C., 48 hours, resazurin; for MIC: Mycolicibacterium smegmatis, MC2155, 48 h, read-out: MIC (μg/mL) Mycobacterium smegmatis
[2] = test system: Mycobacterium bovis BCG strain; experiment: microbe, parasite or virus in culture; type: cell-based; details: for MIC: Mycobacterium tuberculosis variant bovis BCG, BCG, 168 h, read-out: MIC (μg/mL) Mycobacterium bovis BCG, BCG strain, 7H9 medium, 37° C., 168 hours, resazurin
[3] = test system: Mycobacterium tuberculosis H37Ra strain; experiment: microbe, parasite or virus in culture; type: cell-based; details: for MIC: Mycobacterium tuberculosis, H37RA, 168 h, read-out: MIC (μg/mL) Mycobacterium tuberculosis H37Ra
[4] = test system: Mycobacterium tuberculosis (H37Rv); details: reports, in words; cited from earlier work

## Cc1c(C(=O)O[C@H]2C[C@H]3CC[C@]2(C)C3(C)C)nn(-c2ccc(Cl)cc2Cl)c1-c1ccc(Cl)cc1 [Compound 173, (1R,2S,4R)-1,7,7-trimethyl-bicyclo[2.2.1]heptan-2-yl 5-(4-chlorophenyl)-1-(2,4-dichlorophenyl)-4-methyl-1H-pyrazole-3-carboxylate]
[1]
  MIC: 57.9 µg/mL (≈ 112 µM)
[2]
  MIC: > 232 µg/mL
[3]
  MIC: > 232 µg/mL

## Cc1c(C(=O)NN2CCCCC2)nn(-c2ccc(Cl)cc2Cl)c1-c1ccc(Cl)cc1 [Rimonabant, rimonabant, reference compound]
[1]
  MIC: 17 µg/mL (≈ 36.6 µM)
  MIC (μg/mL) Mycobacterium smegmatis: 16.99 µg/mL (≈ 36.6 µM)
[4]
  effect against Mycobacterium tuberculosis (H37Rv): significant effect
[2]; BCG strain, 7H9 medium, 37° C., 168 hours, resazurin
  MIC (μg/mL) Mycobacterium bovis BCG: 33.99 µg/mL (≈ 73.3 µM)
[2]
  MIC: 34 µg/mL (≈ 73.3 µM)
[3]
  MIC (μg/mL) Mycobacterium tuberculosis H37Ra: 16.99 µg/mL (≈ 36.6 µM)
  MIC: 17 µg/mL (≈ 36.6 µM)
